Measured values taken from paper doi:10.1101/2024.01.22.576576v1, “Phenotypic screening of covalent compound libraries identifies chloromethyl ketone antibiotics and MiaA as a new target” (biorxiv, 2024).
Values after ≈ are worked out from the molar mass of the structure shown. Read-outs that look alike come from different tables or passages of the source.

Key:
E. coli JPN15 = system: T1, E. coli JPN15; test: microbe, parasite or virus in culture; set-up: species or system bacterial strain; broth microdilution MIC, OD600, lowest concentration without visible bacterial growth; settings: Escherichia coli, JPN15, read-out: MIC EC
T1 construct: JPN15 (EPEC)
Description: (§1) MIC measurement. The minimum inhibitory concentrations (MICs) of compounds were measured using the broth microdilution method.1 One stab using 10 µL tip from bacteria glycerol stock was inoculated into 5 mL of LB supplemented with selection antibiotics (Kanamycin for Keio collections and chloramphenicol for ASKA collections), and the culture was incubated at 37 °C with shaking overnight. […] The plate was incubated at 37 °C for 16 ~ 20 h with shaking at 80 rpm and the OD600 was measured using Cytation 5 plate reader (BioTek). MIC was determined as the lowest concentration for which no bacterial growth was observed. LB was used as the growth media for all the bacteria strains unless otherwise mentioned. For S. aureus and A. baumannii strains, tryptic soy broth (TSB, BD, DF0370-17-3) was used as the growth media instead of LB. For P. aeruginosa and K. pneumoniae strains, nutrient broth (NB, RPI, N15100) was used as growth media. All MIC measurements were performed in at least biological duplicates.

S. aureus MSSA476 = system: T2, S. aureus MSSA476; test: microbe, parasite or virus in culture; set-up: species or system bacterial strain; broth microdilution MIC, OD600, lowest concentration without visible bacterial growth; settings: Staphylococcus aureus, MSSA476, read-out: MIC SA
T2 construct: MSSA476
Description: as §1

S. flexneri M90T [1] = system: T3, S. flexneri M90T; test: microbe, parasite or virus in culture; set-up: species or system bacterial strain; broth microdilution MIC, OD600, lowest concentration without visible bacterial growth; settings: Shigella flexneri, read-out: MIC SF
T3 construct: M90T
Description: as §1

V. cholerae SAD30 = system: T4, V. cholerae SAD30; test: microbe, parasite or virus in culture; set-up: species or system bacterial strain; broth microdilution MIC, OD600, lowest concentration without visible bacterial growth; settings: Vibrio cholerae, SAD30, read-out: MIC VC
T4 construct: SAD30
Description: as §1

S. flexneri M90T [2] = test: microbe, parasite or virus in culture; settings: Shigella flexneri, read-out: MIC SF
Description: as §1

Sf_PdxY = target: T5, Sf_PdxY (Shigella flexneri, UniProt Q83KY1); test: in-gel fluorescence competition with 5-TMRIA; type: binding; settings: covalent; 1 h preincubation
T5 construct: gene pdxY; recombinant, purified from E. coli BL21; also native protein in live S. flexneri M90T (ABPP row)
T5 sequence (Q83KY1 1-287): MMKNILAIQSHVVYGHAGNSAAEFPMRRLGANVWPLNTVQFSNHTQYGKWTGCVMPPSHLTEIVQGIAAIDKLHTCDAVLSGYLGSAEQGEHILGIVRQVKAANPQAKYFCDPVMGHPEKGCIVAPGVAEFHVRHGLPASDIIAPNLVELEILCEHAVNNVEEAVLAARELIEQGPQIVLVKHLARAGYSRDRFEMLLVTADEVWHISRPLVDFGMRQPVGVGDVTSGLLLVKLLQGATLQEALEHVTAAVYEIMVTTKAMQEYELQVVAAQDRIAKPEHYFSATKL

Sf_FabH = target: T6, Sf_FabH (Shigella flexneri, UniProt Q83RS8); test: in-gel fluorescence competition with 5-TMRIA; type: binding; settings: covalent; 1 h preincubation
T6 construct: gene fabH; recombinant, purified from E. coli BL21; also native protein in live S. flexneri M90T (ABPP rows)
T6 sequence (Q83RS8 1-317): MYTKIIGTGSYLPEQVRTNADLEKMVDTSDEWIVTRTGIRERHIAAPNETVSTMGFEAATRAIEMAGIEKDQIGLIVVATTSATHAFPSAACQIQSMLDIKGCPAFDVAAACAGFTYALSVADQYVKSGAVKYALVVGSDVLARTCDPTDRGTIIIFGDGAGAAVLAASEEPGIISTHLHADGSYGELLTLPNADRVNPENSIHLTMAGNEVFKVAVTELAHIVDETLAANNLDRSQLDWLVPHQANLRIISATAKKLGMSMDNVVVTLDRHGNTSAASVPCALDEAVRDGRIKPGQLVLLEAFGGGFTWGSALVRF

Sf_MiaA [3] = target: T7, Sf_MiaA (Shigella flexneri, UniProt P59197); test: i6A-37 tRNA formation followed by LC-MS after preincubation; type: biochemical; settings: covalent; Cys273; tRNA-Trp 34-mer substrate
T7 construct: gene miaA; recombinant, purified from E. coli BL21; two cysteines in total; also native protein in live S. flexneri M90T (ABPP row)
T7 sequence (P59197 1-316): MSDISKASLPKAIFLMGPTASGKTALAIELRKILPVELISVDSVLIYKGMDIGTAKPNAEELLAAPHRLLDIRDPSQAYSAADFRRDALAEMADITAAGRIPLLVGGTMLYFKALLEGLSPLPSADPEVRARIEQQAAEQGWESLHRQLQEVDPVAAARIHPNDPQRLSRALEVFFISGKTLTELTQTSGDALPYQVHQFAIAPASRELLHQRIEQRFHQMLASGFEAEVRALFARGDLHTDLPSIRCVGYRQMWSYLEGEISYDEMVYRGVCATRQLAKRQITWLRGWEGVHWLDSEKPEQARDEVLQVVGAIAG
Description: i6A-37 tRNA formation followed by LC-MS after preincubation on Sf_MiaA | preincubation of 10-F05 with MiaA decreased the initial velocity of modified tRNA forming rate

Sa_FabH = target: T8, Sa_FabH (Staphylococcus aureus, UniProt Q6GAU3); test: in-gel fluorescence competition with 5-TMRIA; type: binding; settings: covalent
T8 construct: gene fabH; purified protein
T8 sequence (Q6GAU3 1-313): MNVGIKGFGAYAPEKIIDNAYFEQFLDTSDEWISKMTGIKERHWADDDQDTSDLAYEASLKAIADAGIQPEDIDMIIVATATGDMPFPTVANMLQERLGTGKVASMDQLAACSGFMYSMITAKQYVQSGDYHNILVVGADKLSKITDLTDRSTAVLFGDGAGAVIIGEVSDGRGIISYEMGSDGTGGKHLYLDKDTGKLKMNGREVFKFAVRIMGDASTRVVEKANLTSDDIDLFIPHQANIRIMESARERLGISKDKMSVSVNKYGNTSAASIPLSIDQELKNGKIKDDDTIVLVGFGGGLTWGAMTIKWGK

Sf_MiaA [4] = target: T7, Sf_MiaA; test: in-gel fluorescence competition with 5-TMRIA; type: binding; settings: covalent; Cys273; 1 h preincubation
A. baumannii BAA-1790 = system: T9, A. baumannii BAA-1790; test: microbe, parasite or virus in culture; set-up: species or system bacterial strain; broth microdilution MIC, OD600, lowest concentration without visible bacterial growth; settings: Acinetobacter baumannii, BAA1790, read-out: 10-F05 MIC µM
T9 construct: BAA-1790
Description: as §1

E. cloacae 13047 = system: T10, E. cloacae 13047; test: microbe, parasite or virus in culture; set-up: species or system bacterial strain; broth microdilution MIC, OD600, lowest concentration without visible bacterial growth; settings: Enterobacter cloacae, 13047, read-out: 10-F05 MIC µM
T10 construct: 13047
Description: as §1

E. coli (KPC+) BAA-2340 = system: T11, E. coli (KPC+) BAA-2340; test: microbe, parasite or virus in culture; set-up: species or system bacterial strain; broth microdilution MIC, OD600, lowest concentration without visible bacterial growth; settings: Escherichia coli, BAA2340, read-out: 10-F05 MIC µM
T11 construct: BAA-2340 (KPC+)
Description: as §1

K. pneumoniae 13883 = system: T12, K. pneumoniae 13883; test: microbe, parasite or virus in culture; set-up: species or system bacterial strain; broth microdilution MIC, OD600, lowest concentration without visible bacterial growth; settings: Klebsiella pneumoniae, 13883, read-out: 10-F05 MIC µM
T12 construct: 13883
Description: as §1

K. pneumoniae 700603 = system: T13, K. pneumoniae 700603; test: microbe, parasite or virus in culture; set-up: species or system bacterial strain; broth microdilution MIC, OD600, lowest concentration without visible bacterial growth; settings: Klebsiella pneumoniae, 700603, read-out: 10-F05 MIC µM
T13 construct: 700603
Description: as §1

P. aeruginosa BAA-2110 = system: T14, P. aeruginosa BAA-2110; test: microbe, parasite or virus in culture; set-up: species or system bacterial strain; broth microdilution MIC, OD600, lowest concentration without visible bacterial growth; settings: Pseudomonas aeruginosa, BAA2110, read-out: 10-F05 MIC µM
T14 construct: BAA-2110
Description: as §1

| SMILES | MIC (E. coli JPN15) [µM] | MIC (S. aureus MSSA476) [µM] | MIC (S. flexneri M90T [1]) [µM] | MIC (V. cholerae SAD30) [µM] | MIC (S. flexneri M90T [2]) [µM] | further results |
| --- | --- | --- | --- | --- | --- | --- |
| Cc1cccc(-n2cc(C(=O)CCl)nn2)c1 [10-L07] | 50 (≈ 11.8 µg/mL) | 10 (≈ 2.36 µg/mL) | 5 (≈ 1.18 µg/mL) | 25 (≈ 5.89 µg/mL) |  |  |
| Cn1cc(C(=O)CCl)nn1 [10-M19] | 50 (≈ 7.98 µg/mL) | 100 (≈ 16 µg/mL) | 50 (≈ 7.98 µg/mL) | 50 (≈ 7.98 µg/mL) |  |  |
| CC(=O)c1ccccn1 [10-J03-N] | > 100 | > 100 |  | > 100 | > 100 |  |
| CC(=O)c1cn(-c2ccc(F)cc2)nn1 [10-F05-N] | > 100 | > 100 |  | > 100 | > 100 |  |
| CC(=O)c1cn(-c2cccc(C)c2)nn1 [10-L07-N] | > 100 | > 100 |  | > 100 | > 100 |  |
| O=C(CCl)c1cn(-c2ccc(F)cc2)nn1 [10-F05] | 25 (≈ 5.99 µg/mL) | 10 (≈ 2.4 µg/mL) | 2.5 (≈ 0.599 µg/mL) | 10 (≈ 2.4 µg/mL) |  | in-gel fluorescence competition with 5-TMRIA (Sf_PdxY): preincubation of 10-F05 decreased the 5-TMRIA labeling in a dose-dependent manner (Figure 5A); in-gel fluorescence competition with 5-TMRIA (Sf_FabH): rapid covalent bond formation between 10-F05 and Sf_FabH (Figure 5B); fold decrease in initial velocity (Sf_MiaA [3]): 1.7 fold; in-gel fluorescence competition with 5-TMRIA (Sa_FabH): 10-F05 was able to bind with S. aureus FabH (Sa_FabH, Figure 5C); in-gel fluorescence competition with 5-TMRIA (Sf_MiaA [4]): indicating 10-F05 specifically reacts with MiaA Cys273; MIC (A. baumannii BAA-1790): > 100 µM; MIC (E. cloacae 13047): 50 µM (≈ 12 µg/mL); MIC (E. coli (KPC+) BAA-2340): 50 µM (≈ 12 µg/mL); MIC (K. pneumoniae 13883): 50 µM (≈ 12 µg/mL); MIC (K. pneumoniae 700603): > 100 µM; MIC (P. aeruginosa BAA-2110): > 100 µM |
| CC(=O)c1cnccc1F [10-I09-N] | > 100 | > 100 |  | > 100 | > 100 |  |
| O=C(CCl)c1cn(-c2cccc(C(F)(F)F)c2)nn1 [10-C09] | 100 (≈ 29 µg/mL) | 25 (≈ 7.24 µg/mL) | 25 (≈ 7.24 µg/mL) | 100 (≈ 29 µg/mL) |  |  |
